Legend:
[1] = Selectivity index, ratio of IC50 for HEK293T cells to IC50 for human A549 cells; assay type: toxicity; details: HEK293T cells versus A549 cells, read-out: Ratio IC50
[2] = Selectivity index, ratio of IC50 for HEK293T cells to IC50 for human HeLa cells; assay type: toxicity; details: HEK293T cells versus HeLa cells, read-out: Ratio IC50
HEK-293T = experiment: Cytotoxicity against HEK293T cells assessed as cell growth inhibition after 48 hrs by MTT assay; assay type: cell-based; details: Homo sapiens
HT-1080 = experiment: Cytotoxicity against human HT1080 cells assessed as cell growth inhibition after 48 hrs by MTT assay; assay type: functional, cell-based; details: HT-1080, 48 h
MDA-MB-231 = experiment: Cytotoxicity against human MDA-MB-231 cells assessed as cell growth inhibition after 48 hrs by MTT assay; assay type: functional, cell-based; details: MDA-MB-231, 48 h
[3] = Selectivity index, ratio of IC50 for HEK293T cells to IC50 for human PC3 cells; assay type: toxicity; details: HEK293T cells versus PC3 cells, read-out: Ratio IC50
HeLa = experiment: Cytotoxicity against human HeLa cells assessed as cell growth inhibition after 48 hrs by MTT assay; assay type: functional, cell-based
[4] = Selectivity index, ratio of IC50 for HEK293T cells to IC50 for human HT1080 cells; assay type: toxicity; details: HEK293T cells versus HT1080 cells, read-out: Ratio IC50
A549 = experiment: Cytotoxicity against human A549 cells assessed as cell growth inhibition after 48 hrs by MTT assay; assay type: functional, cell-based; details: A549, 48 h
PC-3 = experiment: Cytotoxicity against human PC3 cells assessed as cell growth inhibition after 48 hrs by MTT assay; assay type: functional, cell-based; details: PC-3, 48 h
[5] = Selectivity index, ratio of IC50 for HEK293T cells to IC50 for human MDA-MB-231 cells; assay type: toxicity; details: HEK293T cells versus MDA-MB-231 cells, read-out: Ratio IC50

| SMILES | selectivity ratio [1] | selectivity ratio [2] | IC50 (HEK-293T) [µM] | IC50 (HT-1080) [µM] | IC50 (MDA-MB-231) [µM] | selectivity ratio [3] | IC50 (HeLa) [µM] | selectivity ratio [4] | IC50 (A549) [µM] | IC50 (PC-3) [µM] | selectivity ratio [5] |
| --- | --- | --- | --- | --- | --- | --- | --- | --- | --- | --- | --- |
| COc1cc(OC)c(-c2nc3cc(/C=C4\SC(=O)N(Cc5cccc(C)c5)C4=O)ccc3[nH]2)cc1OC | 25.8 | 18.6 | 3.35 | 0.19 | 1.78 | 5.3 | 0.18 | 17.6 | 0.13 | 0.63 | 1.9 |
| COc1cc(-c2nc3cc(/C=C4\SC(=O)NC4=O)ccc3[nH]2)cc(OC)c1OC |  |  | 13.6 | 3.12 | 6.83 |  | 1.67 |  | 3.57 | 12 |  |
| COc1ccc(-c2nc3cc(/C=C4\SC(=O)NC4=O)ccc3[nH]2)cc1OC |  |  | 21.7 | 2.43 | 13.6 |  | 7.83 |  | 0.57 | 8.72 |  |
| COc1cc(-c2nc3cc(/C=C4\SC(=O)N(Cc5ccccc5)C4=O)ccc3[nH]2)cc(OC)c1OC |  |  | 8.21 | 0.66 | 2.29 |  | 0.95 |  | 0.67 | 2.5 |  |
| COc1ccc(-c2nc3cc(/C=C4\SC(=O)N(CC(=O)c5ccccc5)C4=O)ccc3[nH]2)cc1OC |  |  | 27.8 | 0.59 | 2.04 |  | 7.48 |  | 0.74 | 0.43 |  |
| COc1cc(OC)c(-c2nc3cc(/C=C4\SC(=O)N(CC(=O)N5CCCCC5)C4=O)ccc3[nH]2)cc1OC |  |  | > 50 | 8.76 | > 50 |  | 6.89 |  | 14.5 | > 50 |  |
| COc1cc(OC)c(-c2nc3cc(/C=C4\SC(=O)NC4=O)ccc3[nH]2)cc1OC |  |  | 15.3 | 6.35 | 24.5 |  | 15.4 |  | 1.84 | 6.32 |  |
| COc1cc(-c2nc3cc(/C=C4\SC(=O)N(CC(=O)N5CCCCC5)C4=O)ccc3[nH]2)cc(OC)c1OC |  |  | 21.5 | 3.65 | 34.9 |  | 23.3 |  | 0.98 | 14.7 |  |
| COc1cc(CN2C(=O)S/C(=C\c3ccc4[nH]c(-c5cc(OC)c(OC)c(OC)c5)nc4c3)C2=O)cc(OC)c1OC |  |  | 16.6 | 0.98 | 0.27 |  | 2.24 |  | 0.53 | 10.2 |  |
